The text below walks through data of patent US11136625B2, “Gene expression signatures predictive of subject response to a multi-kinase inhibitor and methods of using the same” (Crown Bioscience, Inc. (Taicang), priority 2013, dated 2021).

The test system of experiment [1] is HCC-PDX model LIM1088 (code 019). Description: Sorafenib antitumor activity in HCC HuPrime PDX model LIM1088. Type of experiment: in vivo, Balb/c nude mice. As to conditions: 50 mg/kg p.o. qd × 13, P value 0.182. An excerpt: (§1) Patient tumor samples and engraftment in immunocompromised mice. […] (<10).
(§2) Evaluation of antitumor activity.

Experiment [2] deals with advanced hepatocellular carcinoma (HCC). As to conditions: background statement; cited from earlier work.
Experiment [3] deals with HCC-PDX model LIM1005 (code 008). Description: Sorafenib antitumor activity in HCC HuPrime PDX model LIM1005. The experiment is classed as in vivo, Balb/c nude mice. Conditions: 50 mg/kg p.o. qd × 14, P value 0.015.
Description: as §1, §2

The test system of experiment [4] is HCC-PDX model LIM1054 (code 013). Put plainly: Sorafenib antitumor activity in HCC HuPrime PDX model LIM1054. As to conditions: 50 mg/kg p.o. qd × 14, P value 0.045. The experiment is classed as in vivo, Balb/c nude mice.
Description: as §1, §2

The subject of experiment [5] is HCC-PDX model LIM1078 (code 018). Put plainly: Sorafenib antitumor activity in HCC HuPrime PDX model LIM1078. The experiment is classed as in vivo, Balb/c nude mice. As to conditions: 50 mg/kg p.o. qd × 13, P value 0.055.
Description: as §1, §2

Experiment [6] has as its system HCC-PDX model LIM612 (code 006). Put plainly: Sorafenib antitumor activity in HCC HuPrime PDX model LIM612. The experiment is classed as in vivo, Balb/c nude mice. Conditions: 50 mg/kg p.o. Qd × 22, P value 0.001.
Description: as §1, §2

Experiment [7] relates to HCC-PDX model LIM1025 (code 002). Description: Sorafenib antitumor activity in HCC HuPrime PDX model LIM1025. Type of experiment: in vivo, Balb/c nude mice. As to conditions: 50 mg/kg p.o. qd × 14, P value <0.001.
Description: as §1, §2

In experiment [8] the test system is HCC-PDX model LIM1074 (code 011). Description: Sorafenib antitumor activity in HCC HuPrime PDX model LIM1074. The experiment is classed as in vivo, Balb/c nude mice. Conditions: 50 mg/kg p.o. qd × 13, P value 0.032.
Description: as §1, §2

Experiment [9] deals with HCC-PDX model LIM1097 (code 014). Description: Sorafenib antitumor activity in HCC HuPrime PDX model LIM1097. The experiment is classed as in vivo, Balb/c nude mice. Conditions: 50 mg/kg p.o. qd × 14, P value 0.046.
Description: as §1, §2

Experiment [10] deals with cohort of 21 hepatocellular carcinoma (HCC) patient derived xenografts (PDXs). Description: Clinical trial-like study of Sorafenib in a cohort of 21 HCC HuPrime PDXs. Type of experiment: in vivo, Balb/c nude mice. As to conditions: 13 out of 21 PDXs; daily oral Sorafenib 50 mg/kg.
Description: as §1, §2
Patient derived xenografts (PDXs) are considered experimental models mimicking patient tumors, or “patient avatars”. We performed a clinical-like trial (phase II-like) using a cohort of 21 hepatocellular carcinoma (HCC) patient derived xenografts (PDXs), also called patient avatar trial, for testing their response to multi-kinase inhibitor Sorafenib. […] Gene expression profiles of these PDXs were analyzed to reveal the mRNA expression signatures that may be predictive of the response to Sorafenib. This signature can be potentially used to develop companion diagnostics to stratify patent treatment, or individualized treatment.

Experiment [11] deals with HCC-PDX model LIM941 (code 010). Put plainly: Sorafenib antitumor activity in HCC HuPrime PDX model LIM941. Type of experiment: in vivo, Balb/c nude mice. As to conditions: 50 mg/kg p.o. 5 days on/2 days off, P value <0.001.
Description: as §1, §2

The subject of experiment [12] is HCC-PDX model LIMsh050 (code 020). Put plainly: Sorafenib antitumor activity in HCC HuPrime PDX model LIMsh050. Type of experiment: in vivo, Balb/c nude mice. The source says:
(§3) We were interested in identifying models that would respond or not respond to Sorafenib. To this end, we tested a cohort of randomly selected 21 HCC HuPrime by treating them with Sorafenib.
(§4) Patient tumor samples and engraftment in immunocompromised mice. Freshly and surgically removed tumor tissues were obtained from the patients diagnosed as HCC through collaboration with the Beijing Keluoen Translational Medicine Institute and Hebei Medical University Fourth Hospital with approval by the Institutional Review Boards of Hebei Medical University Fourth Hospital and the informed consents from patients. The engraftments of patient tumor fragments into immunocompromised mice subcutaneously have been broadly described by others. Briefly, the tumors were sliced into 3×3×3 mm3 fragments and inoculated subcutaneously on the flank of mice (Balb/c nude, 6-8 wks old, female, Beijing HFK Bioscience Co. Ltd., Beijing, China). The tumor growth was monitored twice weekly by using a caliper. The established tumor models from these patient samples, called passage 0 or P0, were serially re-engrafted to maintain tumors, these subsequent passages were called P1, 2, 3 . . . (<10). […]

In experiment [13] the test system is HCC-PDX model LIM574 (code 009). Description: Sorafenib antitumor activity in HCC HuPrime PDX model LIM574. As to conditions: 50 mg/kg p.o. qd × 14, P value 0.002. The experiment is classed as in vivo, Balb/c nude mice.
Description: as §1, §2

Experiment [14] concerns HCC-PDX model LIM1081 (code 004). Put plainly: Sorafenib antitumor activity in HCC HuPrime PDX model LIM1081. The experiment is classed as in vivo, Balb/c nude mice. As to conditions: 50 mg/kg p.o. qd × 13, P value 0.015.
Description: as §1, §2

The test system of experiment [15] is HCC-PDX model LIM1035 (code 007). Put plainly: Sorafenib antitumor activity in HCC HuPrime PDX model LIM1035. Type of experiment: in vivo, Balb/c nude mice. As to conditions: 50 mg/kg p.o. qd × 14, P value 0.005.
Description: as §1, §2

The test system of experiment [16] is HCC-PDX model LIM1098 (code 005). Description: Sorafenib antitumor activity in HCC HuPrime PDX model LIM1098. Type of experiment: in vivo, Balb/c nude mice. As to conditions: 50 mg/kg qd × 14 p.o., P value 0.008.
Description: as §1, §2

Experiment [17] has as its system HCC-PDX model LIM334 (code 021). Description: Sorafenib antitumor activity in HCC HuPrime PDX model LIM334. Type of experiment: in vivo, Balb/c nude mice.
Description: as §1, §2

Experiment [18] deals with HCC-PDX model LIM1068 (code 016). Put plainly: Sorafenib antitumor activity in HCC HuPrime PDX model LIM1068. Type of experiment: in vivo, Balb/c nude mice. Conditions: 50 mg/kg p.o. qd × 13, P value 0.024.
Description: as §1, §2

For experiment [19], the system named is HCC-PDX model LIF1069 (code 017). Description: Sorafenib antitumor activity in HCC HuPrime PDX model LIF1069. Type of experiment: in vivo, Balb/c nude mice. Conditions: 50 mg/kg p.o. qd × 14, P value 0.024.
Description: as §1, §2

Experiment [20] relates to HCC-PDX model LIM801 (code 012). Conditions: 50 mg/kg p.o. 5 days on/2 days off, P value 0.001.
Description: as §3, §4

In experiment [21] the test system is HCC-PDX model LIM752 (code 003). Description: Sorafenib antitumor activity in HCC HuPrime PDX model LIM752. As to conditions: 50 mg/kg p.o. qd × 14, P value <0.001. The experiment is classed as in vivo, Balb/c nude mice.
Description: as §1, §2

Experiment [22] concerns HCC-PDX model LIM1057 (code 015). Put plainly: Sorafenib antitumor activity in HCC HuPrime PDX model LIM1057. Type of experiment: in vivo, Balb/c nude mice. As to conditions: p.o. 50 mg/kg, qd × 14, P value 0.003.
Description: as §1, §2

For the compound `CNC(=O)c1cc(Oc2ccc(NC(=O)Nc3ccc(Cl)c(C(F)(F)F)c3)cc2)ccn1` [Sorafenib], the “ΔT/ΔC (day14-day15)” value in [1] amounted to 0.54; in experiment [3], 0.21; in [4], 0.38; in [5], 0.48; in experiment [6], 0.15; in [7], 0.01. The “ΔT/ΔC (day14-day15)” value in experiment [8] turned out to be 0.35; in experiment [9], 0.41; in experiment [11], 0.23; in experiment [12] (model LIMsh050, 50 mg/kg p.o. qd × 14, P value 0.134), 0.78; in [13] it was 0.21; in experiment [14], 0.14. For the same compound, the “ΔT/ΔC (day14-day15)” value is 0.16 in experiment [15]; 0.14 in experiment [16]; 1.13 in experiment [17] (model LIM334, 50 mg/kg p.o. 5 days on/2 days off, P value 0.659); 0.47 in experiment [18]; 0.47 in [19]; 0.37 in experiment [20]. Besides, the “ΔT/ΔC (day14-day15)” value in [21] stood at 0.10; in experiment [22], 0.43. In experiment [2], the “increase survival for HCC patients” value was 3 months. The “PDXs that achieved effective tumor growth inhibition with % ΔT/ΔC<40% (p<0.05)” value in [10] is reported as 62%. The “model response to Sorafenib (in words)” value in experiment [12] (model L10050, daily oral 50 mg/kg) is reported as “quite or partially resistant”; in experiment [17] (model L10334, daily oral 50 mg/kg), “quite or partially resistant”.
